In patent US10723741B1, “DNA polymerase IIIC inhibitors and use thereof” (Acurx Pharmaceuticals, LLC, priority 2018, dated 2020):
Values after ≈ are worked out from the molar mass of the structure shown. Where two headings read alike, the source gives them in different places.

Columns and labels:
Type in all cases: cell-based
[1] = test system: Staphylococcus aureus ATCC 29213 (MSSA); assay: Broth microdilution MIC, S. aureus ATCC 29213 (MSSA); conditions: read-out: MIC S. aureus ATCC 29213 (MSSA)
How it was run: (§1)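 Broth microdilution in strain-specific test medium with ~5.0×10^5 cfu/ml inoculum, 1% DMSO and two-fold compound dilutions from 64 to 0.0625 μg/ml. Plates were held 20 hours at 37° C in ambient air. S. pneumoniae colonies were grown beforehand on blood agar in 5% CO2.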

[2] = test system: Streptococcus pneumoniae ATCC 49619; assay: Broth microdilution MIC, S. pneumoniae ATCC 49619; conditions: read-out: MIC S. pneumoniae ATCC 49619
How it was run: as §1

[3] = test system: Escherichia coli ATCC 25922; assay: Broth microdilution MIC, E. coli ATCC 25922 (MHIIB w & w/o 4 mM EDTA); conditions: for MIC: Escherichia coli, read-out: MIC E. coli ATCC 25922; for MIC E. coli ATCC 25922 + 4 mM EDTA: with 4 mM EDTA
How it was run: as §1

[4] = test system: Staphylococcus aureus NRS384 (MRSA); assay: Broth microdilution MIC, S. aureus NRS384 (MRSA); conditions: Staphylococcus aureus, read-out: MIC NRS 384 (MRSA)
How it was run: as §1

[5] = test system: Enterococcus faecium ATCC 700221 (VRE); assay: Broth microdilution MIC, E. faecium ATCC 700221 (VRE); conditions: Enterococcus faecium, read-out: MIC E. faecium ATCC 700221 (VRE)
How it was run: as §1

[6] = test system: Enterococcus faecalis ATCC 29212; assay: Broth microdilution MIC, E. faecalis ATCC 29212; conditions: read-out: MIC E. faecalis ATCC 29212
How it was run: as §1

[7] = test system: Bacillus subtilis ATCC 6633; assay: Broth microdilution MIC, B. subtilis ATCC 6633; conditions: read-out: MIC B. subtilis ATCC 6633
How it was run: as §1

[8] = broth microdilution, 37° C., 20 hours
[9] = ATCC49619, broth microdilution, 37° C., 20 hours
[10] = ATCC25922, without EDTA, broth microdilution, 37° C., 20 hours
[11] = ATCC29212, broth microdilution, 37° C., 20 hours
[12] = ATCC6633, broth microdilution, 37° C., 20 hours

| SMILES | MIC [1, 8] [µg/mL] | MIC [2, 9] [µg/mL] | MIC [3, 10] [µg/mL] | MIC E. coli ATCC 25922 + 4 mM EDTA [3, 8] [µg/mL] | MIC [4, 8] [µg/mL] | MIC [5, 8] [µg/mL] | MIC [6, 11] [µg/mL] | MIC [7, 12] [µg/mL] | MIC ([1]; 20 h) [µg/mL] | MIC ([2]; ATCC49619, 20 h) [µg/mL] | MIC ([3]; ATCC25922, 20 h) [µg/mL] | MIC ([4]; 20 h) [µg/mL] | MIC ([5]; 20 h) [µg/mL] | MIC ([6]; ATCC29212, 20 h) [µg/mL] | MIC ([7]; ATCC6633, 20 h) [µg/mL] |
| --- | --- | --- | --- | --- | --- | --- | --- | --- | --- | --- | --- | --- | --- | --- | --- |
| Cl.O=C(c1cnc[nH]1)N1CCC(n2ncc3nc(NCc4ccc(Cl)c(Cl)c4)[nH]c(=O)c32)CC1 [Compound 270, 1-(1-(1H-imidazole-5-carbonyl)piperidin-4-yl)-5-((3,4-dichlorobenzyl)amino)-1H-pyrazolo[4,3-d]pyrimidin-7(6H)-one hydrochloride] | 16 | 8 | > 64 | >64 | 16 | 4 | 8 | 4 | – | – | – | – | – | – | – |
| Cl.O=C(c1cn[nH]n1)N1CCC(n2ncc3nc(NCc4ccc(Cl)c(Cl)c4)[nH]c(=O)c32)CC1 [Compound 272, 1-(1-(2H-1,2,3-triazole-4-carbonyl)piperidin-4-yl)-5-((3,4-dichlorobenzyl)amino)-1H-pyrazolo[4,3-d]pyrimidin-7(6H)-one hydrochloride] | 16 | 8 | > 64 | >64 | 8 | 2 | 4 | 4 | – | – | – | – | – | – | – |
| Cl.O=C([C@@H]1C[C@@H](O)CN1)N1CCC(n2ncc3nc(NCc4ccc(Cl)c(Cl)c4)[nH]c(=O)c32)CC1 [Compound 274, 5-((3,4-dichlorobenzyl)amino)-1-(1-((2S,4R)-4-hydroxypyrrolidine-2-carbonyl)piperidin-4-yl)-1H-pyrazolo[4,3-d]pyrimidin-7(6H)-one hydrochloride] | 32 | 16 | > 64 | >64 | 64 | 16 | 64 | 16 | – | – | – | – | – | – | – |
| CC(C)(C)OC(=O)N1C[C@H](O)C[C@H]1C(=O)N1CCC(n2ncc3nc(NCc4ccc(Cl)c(Cl)c4)[nH]c(=O)c32)CC1 [Compound 275, (2S,4R)-tert-Butyl 2-(4-(5-((3,4-dichlorobenzyl)amino)-7-oxo-6,7-dihydro-1H-pyrazolo[4,3-d]pyrimidin-1-yl)piperidine-1-carbonyl)-4-hydroxypyrrolidine-1-carboxylate] | – | – | – | >64 | – | – | – | – | 32 (≈ 52.8 µM) | 8 (≈ 13.2 µM) | > 64 | 32 (≈ 52.8 µM) | 8 (≈ 13.2 µM) | 16 (≈ 26.4 µM) | 8 (≈ 13.2 µM) |
| CN(C)CC(O)C(O)C(=O)N1CCC(n2ncc3nc(NCc4ccc(Cl)c(Cl)c4)[nH]c(=O)c32)CC1.Cl (stereo not drawn) [Compound 277, 5-((3,4-dichlorobenzyl)amino)-1-(1-(4-(dimethylamino)-2,3-dihydroxybutanoyl)piperidin-4-yl)-1H-pyrazolo[4,3-d]pyrimidin-7(6H)-one hydrochloride] | > 64 | 16 | > 64 | >64 | 64 | 32 | 64 | 16 | – | – | – | – | – | – | – |
| Cl.O=C([C@@H]1C[C@H](O)CN1)N1CCC(n2ncc3nc(NCc4ccc(Cl)c(Cl)c4)[nH]c(=O)c32)CC1 [Compound 278, 5-((3,4-dichlorobenzyl)amino)-1-(1-((2S,4S)-4-hydroxypyrrolidine-2-carbonyl)piperidin-4-yl)-1H-pyrazolo[4,3-d]pyrimidin-7(6H)-one hydrochloride] | > 64 | 32 | > 64 | >64 | > 64 | 64 | > 64 | 32 | – | – | – | – | – | – | – |

Second part, led by results:

| MIC [1, 8] [µg/mL] | MIC [2, 9] [µg/mL] | MIC [3, 10] [µg/mL] | MIC E. coli ATCC 25922 + 4 mM EDTA [3, 8] [µg/mL] | MIC [4, 8] [µg/mL] | MIC [5, 8] [µg/mL] | MIC [6, 11] [µg/mL] | MIC [7, 12] [µg/mL] | SMILES | MIC ([1]; 20 h) [µg/mL] | MIC ([2]; ATCC49619, 20 h) [µg/mL] | MIC ([3]; ATCC25922, 20 h) [µg/mL] | MIC ([4]; 20 h) [µg/mL] | MIC ([5]; 20 h) [µg/mL] | MIC ([6]; ATCC29212, 20 h) [µg/mL] | MIC ([7]; ATCC6633, 20 h) [µg/mL] |
| --- | --- | --- | --- | --- | --- | --- | --- | --- | --- | --- | --- | --- | --- | --- | --- |
| 4 | 4 | > 64 | >64 | 4 | 2 | 4 | 1 | Cc1cccnc1C(=O)N1CCC(n2ncc3nc(NCc4ccc(Cl)c(Cl)c4)[nH]c(=O)c32)CC1.Cl [Compound 262, 5-((3,4-Dichlorobenzyl)amino)-1-(1-(3-methylpicolinoyl)piperidin-4-yl)-1H-pyrazolo[4,3-d]pyrimidin-7(6H)-one hydrochloride] | – | – | – | – | – | – | – |
| 4 | 2 | > 64 | >64 | 2 | 1 | 4 | 1 | COc1ccnc(C(=O)N2CCC(n3ncc4nc(NCc5ccc(Cl)c(Cl)c5)[nH]c(=O)c43)CC2)c1.Cl [Compound 263, 5-((3,4-dichlorobenzyl)amino)-1-(1-(4-methoxypicolinoyl)piperidin-4-yl)-1H-pyrazolo[4,3-d]pyrimidin-7(6H)-one hydrochloride] | – | – | – | – | – | – | – |
| 4 | 4 | > 64 | >64 | 2 | 1 | 4 | 1 | Cc1ccnc(C(=O)N2CCC(n3ncc4nc(NCc5ccc(Cl)c(Cl)c5)[nH]c(=O)c43)CC2)c1.Cl [Compound 264, 5-((3,4-Dichlorobenzyl)amino)-1-(1-(4-methylpicolinoyl)piperidin-4-yl)-1H-pyrazolo[4,3-d]pyrimidin-7(6H)-one hydrochloride] | – | – | – | – | – | – | – |
| 8 | 4 | > 64 | >64 | 8 | 4 | 4 | 4 | Cl.O=C(c1nnc[nH]1)N1CCC(n2ncc3nc(NCc4ccc(Cl)c(Cl)c4)[nH]c(=O)c32)CC1 [Compound 265, 1-(1-(4H-1,2,4-triazole-3-carbonyl)piperidin-4-yl)-5-((3,4-dichlorobenzyl)amino)-1H-pyrazolo[4,3-d]pyrimidin-7(6H)-one hydrochloride] | – | – | – | – | – | – | – |
| 8 | 4 | > 64 | >64 | 8 | 2 | 4 | 2 | COc1ccncc1C(=O)N1CCC(n2ncc3nc(NCc4ccc(Cl)c(Cl)c4)[nH]c(=O)c32)CC1.Cl [Compound 266, 5-((3,4-Dichlorobenzyl)amino)-1-(1-(4-methoxynicotinoyl)piperidin-4-yl)-1H-pyrazolo[4,3-d]pyrimidin-7(6H)-one hydrochloride] | – | – | – | – | – | – | – |
| 4 | 4 | > 64 | >64 | 4 | 2 | 4 | 1 | Cc1ccncc1C(=O)N1CCC(n2ncc3nc(NCc4ccc(Cl)c(Cl)c4)[nH]c(=O)c32)CC1.Cl [Compound 267, 5-((3,4-Dichlorobenzyl)amino)-1-(1-(4-methylnicotinoyl)piperidin-4-yl)-1H-pyrazolo[4,3-d]pyrimidin-7(6H)-one hydrochloride] | – | – | – | – | – | – | – |
| 8 | 4 | > 64 | >64 | 8 | 4 | 8 | 2 | COc1cccnc1C(=O)N1CCC(n2ncc3nc(NCc4ccc(Cl)c(Cl)c4)[nH]c(=O)c32)CC1.Cl [Compound 268, 5-((3,4-Dichlorobenzyl)amino)-1-(1-(3-methoxypicolinoyl)piperidin-4-yl)-1H-pyrazolo[4,3-d]pyrimidin-7(6H)-one hydrochloride] | – | – | – | – | – | – | – |
| 4 | 4 | > 64 | >64 | 4 | 2 | 4 | 1 | Cl.O=C(c1ncc[nH]1)N1CCC(n2ncc3nc(NCc4ccc(Cl)c(Cl)c4)[nH]c(=O)c32)CC1 [Compound 269, 1-(1-(1H-imidazole-2-carbonyl)piperidin-4-yl)-5-((3,4-dichlorobenzyl)amino)-1H-pyrazolo[4,3-d]pyrimidin-7(6H)-one hydrochloride] | – | – | – | – | – | – | – |
| 8 | 4 | > 64 | >64 | 8 | 4 | 4 | 2 | Cl.O=C(c1cc[nH]n1)N1CCC(n2ncc3nc(NCc4ccc(Cl)c(Cl)c4)[nH]c(=O)c32)CC1 [Compound 271, 1-(1-(1H-pyrazole-3-carbonyl)piperidin-4-yl)-5-((3,4-dichlorobenzyl)amino)-1H-pyrazolo[4,3-d]pyrimidin-7(6H)-one hydrochloride] | – | – | – | – | – | – | – |
